Measurements as given in patent US6737383B1, “Herbicidal oxadiazolidines” (priority 1999, dated 2004).

What was measured:
crabgrass = assay: Test B pre/postemergence crabgrass; assay type: in vivo, Digitaria sanguinalis
Summary of the method: (§1)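 Response is a visual 0-to-10 score relative to untreated plants, where 0 means no effect and 10 means complete control, taken twelve to sixteen days after application. Treatments went onto soil at planting and onto foliage of 1- to 4-leaf plants, using a surfactant-containing non-phytotoxic solvent.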

pigweed = assay: Test B pre/postemergence pigweed; assay type: in vivo, Amaranthus retroflexus
Summary of the method: as §1

corn = assay: Test B pre/postemergence corn; assay type: in vivo, Zea mays
Summary of the method: as §1

bamyardgrass = assay: Test B flood test barnyardgrass; assay type: in vivo, Echinochloa crus-galli
Summary of the method: (§2)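 Plants were grown to the 2-leaf stage before treatment with test chemical, then held in a greenhouse for twelve to sixteen days. Injury was visually rated against untreated controls on a 0–10 scale, where 0 is no effect and 10 is complete control.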

sugar beet = assay: Test B pre/postemergence sugar beet; assay type: in vivo, Beta vulgaris
Summary of the method: as §1

soybean = assay: Test B pre/postemergence soybean; assay type: in vivo, Glycine max
Summary of the method: as §1

blackgrass = assay: Test B pre/postemergence blackgrass; assay type: in vivo, Alopecurus myosuroides
Summary of the method: as §1

morningglory = assay: Test B pre/postemergence morningglory; assay type: in vivo, Ipomoea hederacea
Summary of the method: as §1

wild oat = assay: Test B pre/postemergence wild oat; assay type: in vivo, Avena fatua
Summary of the method: as §1

purple nutsedge = assay: Test B pre/postemergence purple nutsedge; assay type: in vivo, Cyperus rotundus
Summary of the method: as §1

surinam grass = assay: Test B pre/postemergence surinam grass; assay type: in vivo, Brachiaria decumbens
Summary of the method: as §1

smallflower flatsedge = assay: Test B flood test smallflower flatsedge; assay type: in vivo, Cyperus difformis
Summary of the method: as §2

giant foxtail = assay: Test B pre/postemergence giant foxtail; assay type: in vivo, Setaria faberii
Summary of the method: as §1

velvetleaf = assay: Test B pre/postemergence velvetleaf; assay type: in vivo, Abutilon theophrasti
Summary of the method: as §1

cocklebur = assay: Test B pre/postemergence cocklebur; assay type: in vivo, Xanthium strumarium
Summary of the method: as §1

rape = assay: Test B pre/postemergence rape; assay type: in vivo, Brassica napus
Summary of the method: as §1

[1] = Postemergence, Rate 62 g/ha, scale 0 to 10, 0 is no effect, 10 is complete control
[2] = Postemergence, Rate 125 g/ha, scale of 0 to 10 where 0 is no effect and 10 is complete control
[3] = Postemergence, Rate 250 g/ha, scale of 0 to 10, 0 is no effect, 10 is complete control
[4] = Postemergence, Rate 500 g/ha, scale of 0 to 10 where 0 is no effect and 10 is complete control
[5] = Preemergence, Rate 62 g/ha, scale 0 to 10 (0 no effect, 10 complete control)
[6] = Preemergence, Rate 125 g/ha, scale of 0 to 10 where 0 is no effect and 10 is complete control
[7] = Preemergence, Rate 500 g/ha, scale of 0 to 10 where 0 is no effect and 10 is complete control
[8] = Rate 62 g/ha, flood test species, Pre-emergence, visual evaluation after twelve to sixteen days
[9] = Rate 125 g/ha, under heading Pre-emergence, flood test species, visual evaluation after twelve to sixteen days
[10] = Rate 250 g/ha, Pre-emergence (flood test species), scale 0 to 10, 0 is no effect, 10 is complete control
[11] = Rate 500 g/ha, Pre-emergence section of Table B, 0 to 10 scale (0 no effect, 10 complete control)

Structure (SMILES): CC(C)N(C(=O)n1oc(=O)n(CC2=NOCCC2)c1=O)c1ccc(F)cc1F [Compound 602]
- Plant response rating, Crabgrass (crabgrass; [1]): 2
- Plant response rating, Crabgrass (crabgrass; [2]): 4
- Crabgrass plant response rating (crabgrass; [3]): 4
- Plant response rating, Crabgrass (crabgrass; [4]): 9
- Crabgrass plant response rating (crabgrass; [5]): 7
- Crabgrass plant response rating (crabgrass; [6]): 8
- Plant response rating, Crabgrass (crabgrass; [7]): 10
- Plant response rating, Redroot pigweed (pigweed; [1]): 2
- Plant response rating, Redroot pigweed (pigweed; [2]): 2
- Redroot pigweed plant response rating (pigweed; [3]): 3
- Plant response rating, Redroot pigweed (pigweed; [4]): 6
- Redroot pigweed plant response rating (pigweed; [5]): 2
- Redroot pigweed plant response rating (pigweed; [6]): 7
- Plant response rating, Redroot pigweed (pigweed; [7]): 8
- Plant response rating, Corn (corn; [1]): 0
- Plant response rating, Corn (corn; [2]): 0
- Corn plant response rating (corn; [3]): 0
- Plant response rating, Corn (corn; [4]): 0
- Corn plant response rating (corn; [5]): 0
- Corn plant response rating (corn; [6]): 0
- Corn plant response rating (0 to 10 scale) (corn; Preemergence, Rate 250 g/ha): 0
- Plant response rating, Corn (corn; [7]): 2
- Plant response rating, Barnyardgrass (0 to 10 scale, 0 is no effect, 10 is complete control) (bamyardgrass; [8]): 0
- Barnyardgrass plant response rating (0 to 10 scale, 0 is no effect, 10 is complete control) (bamyardgrass; [9]): 0
- Barnyardgrass plant response rating (bamyardgrass; [10]): 0
- Barnyardgrass plant response rating (bamyardgrass; [11]): 0
- Plant response rating, Sugarbeets (sugar beet; [1]): 0
- Plant response rating, Sugarbeets (sugar beet; [2]): 0
- Sugarbeets plant response rating (sugar beet; [3]): 0
- Plant response rating, Sugarbeets (sugar beet; [4]): 0
- Sugarbeets plant response rating (sugar beet; [5]): 0
- Sugarbeets plant response rating (sugar beet; [6]): 2
- Plant response rating, Sugarbeets (sugar beet; [7]): 5
- Plant response rating, Soybean (soybean; [1]): 3
- Plant response rating, Soybean (soybean; [2]): 3
- Soybean plant response rating (soybean; [3]): 5
- Plant response rating, Soybean (soybean; [4]): 7
- Soybean plant response rating (soybean; [6]): 0
- Plant response rating, Soybean (soybean; [7]): 0
- Plant response rating, Blackgrass (blackgrass; [1]): 4
- Plant response rating, Blackgrass (blackgrass; [2]): 6
- Blackgrass plant response rating (blackgrass; [3]): 8
- Plant response rating, Blackgrass (blackgrass; [4]): 9
- Blackgrass plant response rating (blackgrass; [5]): 0
- Blackgrass plant response rating (blackgrass; [6]): 4
- Blackgrass plant response rating (0 to 10 scale) (blackgrass; Preemergence, Rate 250 g/ha): 6
- Blackgrass plant response rating (blackgrass; [7]): 9
- Plant response rating, Morningglory (morningglory; [1]): 0
- Plant response rating, Morningglory (morningglory; [2]): 1
- Morningglory plant response rating (morningglory; [3]): 2
- Plant response rating, Morningglory (morningglory; [4]): 3
- Morningglory plant response rating (morningglory; [5]): 0
- Morningglory plant response rating (morningglory; [6]): 0
- Plant response rating, Morningglory (morningglory; [7]): 0
- Plant response rating, Wild oats (wild oat; [1]): 0
- Plant response rating, Wild oats (wild oat; [2]): 0
- Wild oats plant response rating (wild oat; [3]): 0
- Plant response rating, Wild oats (wild oat; [4]): 3
- Wild oats plant response rating (wild oat; [5]): 0
- Wild oats plant response rating (wild oat; [6]): 3
- Plant response rating, Wild oats (wild oat; [7]): 8
- Plant response rating, Nutsedge (purple nutsedge; [1]): 0
- Plant response rating, Nutsedge (purple nutsedge; [2]): 0
- Nutsedge plant response rating (purple nutsedge; [3]): 0
- Plant response rating, Nutsedge (purple nutsedge; [4]): 0
- Nutsedge plant response rating (purple nutsedge; [5]): 0
- Nutsedge plant response rating (purple nutsedge; [6]): 0
- Plant response rating, Nutsedge (purple nutsedge; [7]): 0
- Plant response rating, B. signalgrass (surinam grass; [1]): 0
- Plant response rating, B. signalgrass (surinam grass; [2]): 2
- B. signalgrass plant response rating (surinam grass; [3]): 5
- Plant response rating, B. signalgrass (surinam grass; [4]): 7
- B. signalgrass plant response rating (surinam grass; [5]): 0
- B. signalgrass plant response rating (surinam grass; [6]): 4
- B. signalgrass plant response rating (0 to 10 scale, 0 is no effect, 10 is complete control) (surinam grass; Preemergence, Rate 250 g/ha): 7
- B. signalgrass plant response rating (surinam grass; [7]): 7
- Plant response rating, S. Flatsedge (0 to 10 scale, 0 is no effect, 10 is complete control) (smallflower flatsedge; [8]): 0
- S. Flatsedge plant response rating (0 to 10 scale, 0 is no effect, 10 is complete control) (smallflower flatsedge; [9]): 0
- S. Flatsedge plant response rating (smallflower flatsedge; [10]): 0
- S. Flatsedge plant response rating (smallflower flatsedge; [11]): 0
- Plant response rating, Giant foxtail (giant foxtail; [1]): 1
- Plant response rating, Giant foxtail (giant foxtail; [2]): 8
- Giant foxtail plant response rating (giant foxtail; [3]): 9
- Plant response rating, Giant foxtail (giant foxtail; [4]): 9
- Giant foxtail plant response rating (giant foxtail; [5]): 9
- Giant foxtail plant response rating (giant foxtail; [6]): 9
- Plant response rating, Giant foxtail (giant foxtail; [7]): 10
- Plant response rating, Velvetleaf (velvetleaf; [1]): 0
- Plant response rating, Velvetleaf (velvetleaf; [2]): 0
- Velvetleaf plant response rating (velvetleaf; [3]): 0
- Plant response rating, Velvetleaf (velvetleaf; [4]): 0
- Velvetleaf plant response rating (velvetleaf; [5]): 0
- Velvetleaf plant response rating (velvetleaf; [6]): 6
- Plant response rating, Velvetleaf (velvetleaf; [7]): 6
- Plant response rating, Cocklebur (cocklebur; [1]): 0
- Plant response rating, Cocklebur (cocklebur; [2]): 0
- Cocklebur plant response rating (cocklebur; [3]): 0
- Plant response rating, Cocklebur (cocklebur; [4]): 0
- Cocklebur plant response rating (cocklebur; [5]): 0
- Cocklebur plant response rating (cocklebur; [6]): 0
- Cocklebur plant response rating (0 to 10 scale) (cocklebur; Preemergence, Rate 250 g/ha): 0
- Plant response rating, Cocklebur (cocklebur; [7]): 0
- Plant response rating, Rape (rape; [1]): 0
- Plant response rating, Rape (rape; [2]): 0
- Rape plant response rating (rape; [3]): 0
- Plant response rating, Rape (rape; [4]): 0
- Rape plant response rating (rape; [5]): 0
- Rape plant response rating (rape; [6]): 0
- Plant response rating, Rape (rape; [7]): 3
